From paper PMC4501119, “Cholestenoic acid, an endogenous cholesterol metabolite, is a potent γ-secretase modulator” (Molecular Neurodegeneration, 2015)
Like-named read-outs stand apart in the source and are kept apart here.

Legend:
[1] = system: Aβ42 in CHO-2B7 cells (CHO cells stably overexpressing APP695); test: Cell-based Aβ sandwich ELISA of conditioned media from CHO-2B7 cells treated 16 h; parameters: species or system Chinese hamster; conditions: for GSM activity: dose dependent studies; for GSM activity / fold less potent than CA 2a (Aβ42 EC50): CHO-2B7 cells
Procedure: Chinese hamster ovary (CHO) cells stably overexpressing APP695 (CHO-2B7 cells) were grown in Ham’s F-12 medium (Life Technologies) supplemented with 10 % fetal bovine serum and 100 units/ml of penicillin and 100 μg/ml streptomycin. Cells were grown at 37 °C in a humidified atmosphere containing 5 % CO2 in tissue culture plates (Costar). The cells were harvested at confluence and then utilized for biochemical analyses. Compounds were dissolved in dimethyl sulfoxide (DMSO) and screened in CHO-2B7 cells. The cells were incubated for 16 h in the presence of the compound diluted into OptiMEM-reduced serum medium (Life Technologies, Carlsbad, CA, USA) containing 1 % fetal bovine serum.
Monoclonal antibodies to Aβ were generated by the Mayo Clinic Immunology Core facilities (Jacksonville, FL, USA). Ab5 recognizes an epitope in the amino terminus of Aβ (Aβ1-16), recognizes both monomeric and aggregated Aβ, and is human specific. […] Ab 2.1.3 was raised against Aβ35-42 and is specific for Aβx-42. […] Total Aβ level was determined by capture with Ab5 and detected with horseradish peroxidase (HRP)-conjugated 4G8 (a monoclonal antibody against Aβ17-24; Covance, Waltham, MA, USA) with the other Aβ peptides detected with HRP-conjugated Ab5. For the cell-free assay and measuring mouse endogenous Aβ, HRP-conjugated 4G8 was used as the secondary detection antibody. Aβ standards (Bachem, King of Prussia, PA, USA) were prepared by dissolving in hexafluoroisopropanol (HFIP) at 1 mg/ml with sonication, dried under nitrogen, resuspended at 2 mg/ml HFIP, sonicated again and dried under nitrogen. The resulting Aβ was resuspended in 0.01 % ammonium hydroxide, portioned into aliquots in EC buffer, and frozen at −80 °C.

Aβ42 = conditions: cited from earlier work; for GSM activity: endogenous bile acids
[2] = system: endogenous mouse Aβ (mAβ) in primary neuron-glia cultures; test: Primary mixed neuron-glia culture, endogenous mouse Aβ ELISA; format: cell-based
Procedure: Primary mixed neuron-glia cultures were prepared from postnatal day 0 (P0) C3HBL/6 mouse brains (Harlan Labs). Cerebral cortices were dissected from P0 mouse brains and were dissociated in 2 mg/ml papain (Worthington) and 50 μg/mL DNAse I (Sigma) at 37 °C for 20 min. They were then washed three times in sterile Hank’s balanced salt solution (HBSS) to inactivate the papain and switched to 5 % fetal bovine serume (HyClone) in Neurobasal-A growth media (Gibco), which includes 0.5 mM L-glutamine (Gibco), 0.5 mM GlutaMax (Life Technologies), 0.01 % antibiotic-antimycotic (Gibco), and 0.02 % SM1 supplement (Stemcell). The tissue mixture was then triturated three times using a 5 mL pipette followed by a Pasteur pipette, and strained through a 70 μm cell strainer. The cell mixture was then centrifuged at 200xg for 3 min, and re-suspended in fresh Neurobasal-A media. They were then plated onto poly-D-lysine coated 96well plates at 100,000 cells/well. Cells were maintained in the Neurobasal-A growth media mentioned above without fetal bovine serum (FBS) at 37 °C in a humidified 5 % CO2 chamber.
(§1) Monoclonal antibodies to Aβ were generated by the Mayo Clinic Immunology Core facilities (Jacksonville, FL, USA). Ab5 recognizes an epitope in the amino terminus of Aβ (Aβ1-16), recognizes both monomeric and aggregated Aβ, and is human specific. […] Ab 2.1.3 was raised against Aβ35-42 and is specific for Aβx-42. […] For cell-based screens, Aβ was captured from conditioned medium with either Ab5, Ab38, Ab13.1.1, or Ab2.1.3 (coated at 10-50 μg/ml in EC buffer: 5 mM NaH2PO4-H2O, 20 mM Na2HPO4, 400 mM NaCl, 2.5 mM EDTA-full name, 151.5 μM BSA, 813 μM CHAPS, and 7.7 mM NaN3) on Immulon 4HBX Flat-Bottom Microfilter 96-well plates (Thermo Scientific, Waltham, MA, USA). Total Aβ level was determined by capture with Ab5 and detected with horseradish peroxidase (HRP)-conjugated 4G8 (a monoclonal antibody against Aβ17-24; Covance, Waltham, MA, USA) with the other Aβ peptides detected with HRP-conjugated Ab5. For the cell-free assay and measuring mouse endogenous Aβ, HRP-conjugated 4G8 was used as the secondary detection antibody. Aβ standards (Bachem, King of Prussia, PA, USA) were prepared by dissolving in hexafluoroisopropanol (HFIP) at 1 mg/ml with sonication, dried under nitrogen, resuspended at 2 mg/ml HFIP, sonicated again and dried under nitrogen. The resulting Aβ was resuspended in 0.01 % ammonium hydroxide, portioned into aliquots in EC buffer, and frozen at −80 °C. Following these steps, the Aβ is monomeric, as determined by size-exclusion chromatography.

[3] = system: brain mAβ42, mAβ38 and total mAβ; test: Brain Aβ levels after intraperitoneal injection in wild type mice; format: in vivo, mouse (C57BL/6 or CF-1); conditions: 30 mg/kg IP, brains harvested after 30 min, 1, 2 and 3 h
Procedure: 25(R)-CA powder was initially dissolved in DMSO (<4.5 % in the final mixture) and then combined with polyethylene glycol (15)-hydroxystearate (Solutol), ethanol, and water at a ratio of (15:10:75). One molar equivalent of sodium hydroxide was added to the mixture. We performed CA intraperitoneal (IP) injections to wild-type mice (C57BL/6 or CF-1). The mice were injected with 25(R)-CA on the right side of the abdomen. The injections have been performed with various time points (30 min, 1 h, 2 h, and 3 h) and with multiple doses (30 mg per kg (mg/kg), 60 mg/kg, 75 mg/kg and 100 mg/kg). The number of each cohort is 6–8. We used 30 mg/kg of CA for the time-course experiments, and for the dose–response experiments the end-point was set at 30 min. The brains and serum are harvested and frozen for brain Aβ extraction.
The mouse brains were harvested at the age of 3 months. The brains were weighed and recorded. The Diethylamine/Sodium Chloride (DEA/NaCl) extraction buffer (0.4 % DEA) was added to each sample and homogenized using a sonicator. The samples were transferred to a poly-carbonate centrifuge tube and spun down at 50,000xg for 30 min at 4 °C. The supernatant was loaded on the vacuum manifold with the appropriate number of HLB Oasis columns. The samples were loaded on the conditioned column, filtered, and eluted using prepared elution buffer (90 % Methanol, 2 % NH4OH). The eluates are concentrated using the Thermo-Savant SpeedVac concentrator for a minimum of 2 h at 55 °C with radiant heat. The concentrated samples are reconstituted in a blocking buffer (0.67 % Bovine serum albumin (BSA)) at the appropriate volume.
Monoclonal antibodies to Aβ were generated by the Mayo Clinic Immunology Core facilities (Jacksonville, FL, USA). […] Total Aβ level was determined by capture with Ab5 and detected with horseradish peroxidase (HRP)-conjugated 4G8 (a monoclonal antibody against Aβ17-24; Covance, Waltham, MA, USA) with the other Aβ peptides detected with HRP-conjugated Ab5. […] Following these steps, the Aβ is monomeric, as determined by size-exclusion chromatography.

γ-secretase = target: T1, γ-secretase (Homo sapiens, UniProt P49768); test: In vitro γ-secretase (broken cell) assay, membranes of H4 neuroglioma cells overexpressing APP695wt, Aβ ELISA; format: biochemical; conditions: vs DMSO control, 2 h incubation
T1 construct: The membrane derived from the H4 neuroglioma cells overexpressing APP695wt were prepared by carbonate extraction; endogenous in cells; host or cells: H4 neuroglioma cells overexpressing APP695wt (membranes, carbonate extraction)
Procedure: Broken cell assays were performed with slight modifications from the previous studies. The membrane derived from the H4 neuroglioma cells overexpressing APP695wt were prepared by carbonate extraction and incubated at 37 °C for 2 h with CA at various concentrations. Aβ levels were quantified by sandwich ELISAs. For Aβ and AICD spectra, the recombinant C100Flag proteins were overexpressed and purified from Escherichia coli BL21 using a HiTrap Q-column (GE Life Science, Little Chalfont, U.K.). The membrane containing γ-secretase was isolated from the CHO S-1 cell line using sodium carbonate (100 mM, pH 11.0). For the in vitro γ-secretase assay, C100Flag recombinant protein at 25 μM was incubated with the membrane (100 μg/mL) in the presence of CA (20 μM) and DMSO in 150 mM sodium citrate buffer (pH 6.8) containing complete protease inhibitor (Roche, Indianapolis, IN) for 2 h at 37 °C.
as §1

[4] = Cricetulus griseus, CHO-2B7, 16 h, lowering Aβ42, CHO-2B7 cells, 16 h, ELISA
[5] = lowering Aβ42, CHO-2B7 cells, 16 h, ELISA
[6] = Cricetulus griseus, lowering Aβ42, CHO-2B7 cells, 16 h, ELISA
[7] = Cricetulus griseus, lowering Aβ42, CHO-2B7 cells, approximate value

## CC(CCCC(C)C1CCC2C3C(O)CC4=CC(=O)CCC4(C)C3CCC12C)C(=O)O (stereo not drawn) [7α-OH-4-CA, 7α-hydroxy-4-oxo-cholestenoic acid]
[1]; [4]
  EC50: 4.15 µM
[1]
  GSM activity: demonstrated GSM activity

## CC(CCCC(C)C1CCC2C3C(O)C=C4CC(O)CCC4(C)C3CCC12C)C(=O)O (stereo not drawn) [7α-OH-CA, 7α-hydroxy-cholestenoic acid]
[1]; [4]
  EC50: 0.97 µM
[1]
  GSM activity: demonstrated GSM activity

## C[C@@H](CO)CCC[C@@H](C)[C@H]1CC[C@H]2[C@@H]3CC=C4C[C@@H](O)CC[C@]4(C)[C@H]3CC[C@]12C [27-OHC, 27-hydroxycholesterol]
[1]
  GSM activity: inactive
[1]; [5]
  Aβ42 EC50: could not be determined

## C[C@H](CCC(=O)O)[C@H]1CC[C@H]2[C@@H]3CC[C@@H]4CCCC[C@]4(C)[C@H]3CC[C@]12C [Cmpd 1, 5β-Cholanic acid]
Aβ42; decreasing Aβ42
  EC50: ~5.7 µM
Aβ42; decreasing Aβ42, listed as 5β-cholanic acid
  EC50: 5.7 µM

## C[C@H](CCC[C@H](C)C(=O)O)[C@H]1CC[C@H]2[C@@H]3CC=C4C[C@@H](O)CC[C@]4(C)[C@H]3CC[C@]12C [Cmpd 2b, 25-(S)-CA]
[1]
  fold less potent than CA 2a (Aβ42 EC50): about 2 fold
[1]; [5]
  EC50: 0.501 µM

## O=C(O)[C@H](CC1CCC1)c1cc(Cl)c(OCC(F)(F)F)c(-c2ccc(C(F)(F)F)cc2)c1 [Cmpd 3, (R)-2-(5-chloro-6-(2,2,2-trifluoroethoxy)-4’-(trifluoromethyl)biphenyl-3-yl)-3-cyclobutylpropanoic acid]
Aβ42; GSM activity, ref the previous literature
  EC50: 0.067 µM

## CC(C)CC(c1ccc(Cl)cc1)N1CC[C@@H](CC(=O)O)C[C@H]1c1ccc(C(F)(F)F)cc1 (stereo partly drawn) [Cmpd 4, reference compound]
[2]; 1 μM
  mAβ38 level: increased
  mAβ42 level: decreased
[3]
  brain Aβ levels: expected Aβ modulation
[1]; [4]
  EC50: 0.092 µM

## C[C@H](CCCC(=O)O)[C@H]1CC[C@H]2[C@@H]3CC=C4C[C@@H](O[Si](C)(C)C(C)(C)C)CC[C@]4(C)[C@H]3CC[C@]12C [Cmpd 5]
[1]; [6]
  EC50: 1.78 µM
[1]; [7]
  EC50: ~2 µM

## C[C@H](CCCC(=O)O)[C@H]1CC[C@H]2[C@@H]3CC=C4C[C@@H](O)CC[C@]4(C)[C@H]3CC[C@]12C [Cmpd 6]
[1]; [6]
  EC50: 1.96 µM
[1]; [7]
  EC50: ~2 µM

## CC(CCCC(C)C1CCC2C3CC=C4CC(F)CCC4(C)C3CCC12C)C(=O)O (stereo not drawn) [Cmpd 12]
[1]; [5]
  EC50: 8.91 µM

## CC(CCC[C@@H](C)[C@H]1CC[C@H]2[C@@H]3CC=C4CCCC[C@]4(C)[C@H]3CC[C@]12C)C(=O)O (stereo partly drawn) [Cmpd 13, 3-deoxy-CA]
[1]
  fold less potent than CA 2a (Aβ42 EC50): approximately 3 fold
[1]; [5]
  EC50: 0.67 µM

## C[C@H](NC(=O)Cc1cc(F)cc(F)c1)C(=O)N[C@H]1N=C(c2ccccc2)c2ccccc2N(C)C1=O [Cmpd E, reference compound]
[2]
  overall Aβ production: decreased
γ-secretase
  decrease of total Aβ production: 77%
γ-secretase; CA at 150 μM
  decrease of Aβ42 production: 91%

## C[C@H](CCC(=O)O)[C@H]1CC[C@H]2[C@@H]3CC[C@@H]4C[C@H](O)CC[C@]4(C)[C@H]3CC[C@]12C [lithocholic acid]
Aβ42
  GSM activity: GSMs

## C[C@H](CCC(=O)O)[C@H]1CC[C@H]2[C@@H]3[C@@H](O)C[C@@H]4C[C@H](O)CC[C@]4(C)[C@H]3C[C@H](O)[C@]12C [ursocholic acid]
Aβ42
  GSM activity: GSMs
